# Measurements reported in PubChem BioAssay AID687022 (Broad Institute, 2013).
# Activity calls are given as the source filed them.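 How the source made its calls: active means Fitted curve of melting temperature shift crosses the 1.0 threshold at or below the sample's highest valid tested concentration; inconclusive means Flat fit with activity 30 to 70, or invalid fit; inactive means Opposite direction, flat within 30, or no crossing.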
# Target: Fibroblast growth factor 22 (Homo sapiens) (UniProt Q9HCT0)
# Experiment: binders of human FGF22 protein, dose response, FGF22 synaptogenesis inhibitor project, biophysical, thermal shift, cherry-pick (AID 687022)
# Conditions: recombinant FGF22 thermal shift, SYPRO orange melting
# Fibroblast growth factor 22 (Homo sapiens), sequence (Q9HCT0 whole entry, looked up): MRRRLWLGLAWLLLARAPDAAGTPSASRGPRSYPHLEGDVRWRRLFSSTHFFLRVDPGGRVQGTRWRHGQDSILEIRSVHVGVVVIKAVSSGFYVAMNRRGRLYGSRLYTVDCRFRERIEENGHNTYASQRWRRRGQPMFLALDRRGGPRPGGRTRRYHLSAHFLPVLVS
row,Structure (SMILES),AbsAC1 (concentration giving Tm-shift threshold 1.0)
1,CS(=O)(=O)N1CC(=O)N2[C@H](CO)[C@@H](c3ccc(C#CCc4ccccc4)cc3)[C@H]2C1,37.5 µM
2,COc1ccc(NC(=O)CN(C)C(=O)c2cn(-c3ccccc3)nc2-c2cccnc2)cc1,> 38 µM (inactive)
3,O=S(=O)(ON(c1ccccc1)S(=O)(=O)c1ccccc1)c1ccccc1,14 µM
4,O=C(N/N=C/c1ccc([N+](=O)[O-])cc1)c1c[nH]c2ccccc12,20 µM
5,O=c1ccc2nc3ccccc3sc-2c1,8.27 µM
6,O=S1(=O)N=C(N(Cc2cccs2)c2ccc(O)cc2)c2ccccc21,1.47 µM
7,CCNC(=O)C[C@@H]1CC[C@H]2[C@H](COc3ccc(NC(=O)Nc4ccc(Cl)cc4)cc3C(=O)N2C)O1,6.25 µM
8,C[C@@H]1CN([C@H](C)CO)S(=O)(=O)c2ccc(-c3ccncc3)cc2O[C@@H]1CN(C)C(=O)Nc1ccc(C(F)(F)F)cc1,15.3 µM
9,CNC(=S)N(Cc1ccc(OC)cc1)C1CC(=O)N(c2ccc(C(=O)OC)cc2)C1=O (stereo unspecified),3.43 µM
10,C[C@H](CO)N1C[C@H](C)[C@@H](CN(C)Cc2ccc(C(=O)O)cc2)Oc2cc(/C=C/c3ccccc3)ccc2S1(=O)=O,> 42 µM (inactive)
11,CSCCC(NS(=O)(=O)c1ccc(Cl)c(Cl)c1)C(=O)O (stereo unspecified),> 38 µM (inactive)
12,COc1ccccc1-c1ccc2c(c1)O[C@@H](CN(C)C(=O)Nc1cccc(F)c1)[C@H](C)CN([C@@H](C)CO)S2(=O)=O,20.6 µM
13,COc1cc(-c2nc(C)c(C(C)=O)n2O)ccc1OCC(=O)Nc1ccc(Cl)cc1,10.9 µM
14,C[C@H]1CN([C@@H](C)CO)S(=O)(=O)c2ccc(-c3cccc(F)c3)cc2O[C@H]1CN(C)C(=O)Nc1cc(F)ccc1F,6.67 µM
15,O=C(Nc1ccc(F)cc1)N[C@@H]1CC[C@H](CCn2cc(-c3ccccc3F)nn2)O[C@H]1CO,10.3 µM
16,CCc1ccc(N2CC(C(=O)OCC(=O)Nc3ccc(C(C)=O)cc3)CC2=O)cc1 (stereo unspecified),17.7 µM
17,O=[N+]([O-])c1ccc(Nc2ccccc2)nc1,5.31 µM
18,CCCCNC(=O)c1onc(CSc2ccc(F)c(F)c2)c1C(=O)NCCCC,0.929 µM
19,COc1ccccc1CNC(=O)C[C@H]1CC[C@@H]2[C@H](COC[C@H](O)CN2C(=O)Nc2ccc(Cl)cc2)O1,30.5 µM
20,CC(C)c1ccc(-n2c(O)c(/C=N/NC(=O)c3ccccc3O)c(=O)[nH]c2=S)cc1,3.91 µM
21,O=C(Nc1ccc2c(c1)OCO2)c1ccc(NC2CC2)c([N+](=O)[O-])c1,17.8 µM
22,O=C1C(=O)C(c2ccccc2)C(=O)C1c1ccccc1 (stereo unspecified),10.7 µM
23,COc1ccccc1NC(=O)N[C@H]1CC[C@H](CCn2cc(-c3ccccc3OC)nn2)O[C@H]1CO,4.01 µM
24,O=C(N/N=C/c1ccc(OCc2ccccc2)cc1)c1ccc(O)cc1,3.59 µM
25,S=C(Nc1ccc(N2CCOCC2)cc1)Nc1ccc2snnc2c1,9.95 µM
26,O=C(N/N=C/c1cccc(Oc2ccccc2)c1)c1cccc(O)c1,3.12 µM
